Where two headings read alike, the source gives them in different places.
What was measured:
IP3R1 [1] = conditions: other tissues or isolated IP3R1; read-out: EC50 of IP3 for IP3-induced Ca2+ release; cited from earlier work
IP3R1 [2] = biological target: T1, IP3R1 (Mus musculus, UniProt P11881); experiment: [3H]IP3 binding assay with purified IP3R1 in the presence or absence of CARP (Scatchard plot); conditions: for Kd: mean of three separate experiments, read-out: dissociation constant (Kd±S.D.) of IP3 binding to IP3R1
Method: The inventors conducted a binding assay using purified IP3R1, to evaluate effect of CARP on IP3-binding affinity to IP3R1. Purified IP3R1 was incubated with various concentration of [^3H] IP3 in the presence or absence of purified recombinant CARP, and analyzed by a Scatchard plot.
IP3 binding to IP3R1 by IP3 in the presence (▪ in FIG. 6) and in the absence (● in FIG. 6) of CARP. In FIG. 6, the horizontal axis represents an amount of binding IP3 (pmol/mg), and the vertical axis represents an amount of binding IP3 divided by an amount of non-binding IP3 (pmol/mg/nM).
[^3H]IP3 binding to IP3R1 was assayed by polyethylene glycol precipitation in the presence or absence of CARP in accordance with the method as reported previously (Maeda, N., Niinobe, M., et al, (1990), EMBO J.,9,61-67). 0.5 μg of purified IP3R1 was incubated with or without 10 μg of purified His-CARP in 50 μL of a solution containing 50 mM Tris-HCl, pH 8.0, 1 mM EDTA, 1 mM 2-mercaptoethanol, 9.6 nM [^3H] IP3 and different concentration of IP3, for 10 min at 4° C. Nonspecific binding was measured in the presence of 10 μM IP3.
Target sequence in this assay (P11881 whole entry): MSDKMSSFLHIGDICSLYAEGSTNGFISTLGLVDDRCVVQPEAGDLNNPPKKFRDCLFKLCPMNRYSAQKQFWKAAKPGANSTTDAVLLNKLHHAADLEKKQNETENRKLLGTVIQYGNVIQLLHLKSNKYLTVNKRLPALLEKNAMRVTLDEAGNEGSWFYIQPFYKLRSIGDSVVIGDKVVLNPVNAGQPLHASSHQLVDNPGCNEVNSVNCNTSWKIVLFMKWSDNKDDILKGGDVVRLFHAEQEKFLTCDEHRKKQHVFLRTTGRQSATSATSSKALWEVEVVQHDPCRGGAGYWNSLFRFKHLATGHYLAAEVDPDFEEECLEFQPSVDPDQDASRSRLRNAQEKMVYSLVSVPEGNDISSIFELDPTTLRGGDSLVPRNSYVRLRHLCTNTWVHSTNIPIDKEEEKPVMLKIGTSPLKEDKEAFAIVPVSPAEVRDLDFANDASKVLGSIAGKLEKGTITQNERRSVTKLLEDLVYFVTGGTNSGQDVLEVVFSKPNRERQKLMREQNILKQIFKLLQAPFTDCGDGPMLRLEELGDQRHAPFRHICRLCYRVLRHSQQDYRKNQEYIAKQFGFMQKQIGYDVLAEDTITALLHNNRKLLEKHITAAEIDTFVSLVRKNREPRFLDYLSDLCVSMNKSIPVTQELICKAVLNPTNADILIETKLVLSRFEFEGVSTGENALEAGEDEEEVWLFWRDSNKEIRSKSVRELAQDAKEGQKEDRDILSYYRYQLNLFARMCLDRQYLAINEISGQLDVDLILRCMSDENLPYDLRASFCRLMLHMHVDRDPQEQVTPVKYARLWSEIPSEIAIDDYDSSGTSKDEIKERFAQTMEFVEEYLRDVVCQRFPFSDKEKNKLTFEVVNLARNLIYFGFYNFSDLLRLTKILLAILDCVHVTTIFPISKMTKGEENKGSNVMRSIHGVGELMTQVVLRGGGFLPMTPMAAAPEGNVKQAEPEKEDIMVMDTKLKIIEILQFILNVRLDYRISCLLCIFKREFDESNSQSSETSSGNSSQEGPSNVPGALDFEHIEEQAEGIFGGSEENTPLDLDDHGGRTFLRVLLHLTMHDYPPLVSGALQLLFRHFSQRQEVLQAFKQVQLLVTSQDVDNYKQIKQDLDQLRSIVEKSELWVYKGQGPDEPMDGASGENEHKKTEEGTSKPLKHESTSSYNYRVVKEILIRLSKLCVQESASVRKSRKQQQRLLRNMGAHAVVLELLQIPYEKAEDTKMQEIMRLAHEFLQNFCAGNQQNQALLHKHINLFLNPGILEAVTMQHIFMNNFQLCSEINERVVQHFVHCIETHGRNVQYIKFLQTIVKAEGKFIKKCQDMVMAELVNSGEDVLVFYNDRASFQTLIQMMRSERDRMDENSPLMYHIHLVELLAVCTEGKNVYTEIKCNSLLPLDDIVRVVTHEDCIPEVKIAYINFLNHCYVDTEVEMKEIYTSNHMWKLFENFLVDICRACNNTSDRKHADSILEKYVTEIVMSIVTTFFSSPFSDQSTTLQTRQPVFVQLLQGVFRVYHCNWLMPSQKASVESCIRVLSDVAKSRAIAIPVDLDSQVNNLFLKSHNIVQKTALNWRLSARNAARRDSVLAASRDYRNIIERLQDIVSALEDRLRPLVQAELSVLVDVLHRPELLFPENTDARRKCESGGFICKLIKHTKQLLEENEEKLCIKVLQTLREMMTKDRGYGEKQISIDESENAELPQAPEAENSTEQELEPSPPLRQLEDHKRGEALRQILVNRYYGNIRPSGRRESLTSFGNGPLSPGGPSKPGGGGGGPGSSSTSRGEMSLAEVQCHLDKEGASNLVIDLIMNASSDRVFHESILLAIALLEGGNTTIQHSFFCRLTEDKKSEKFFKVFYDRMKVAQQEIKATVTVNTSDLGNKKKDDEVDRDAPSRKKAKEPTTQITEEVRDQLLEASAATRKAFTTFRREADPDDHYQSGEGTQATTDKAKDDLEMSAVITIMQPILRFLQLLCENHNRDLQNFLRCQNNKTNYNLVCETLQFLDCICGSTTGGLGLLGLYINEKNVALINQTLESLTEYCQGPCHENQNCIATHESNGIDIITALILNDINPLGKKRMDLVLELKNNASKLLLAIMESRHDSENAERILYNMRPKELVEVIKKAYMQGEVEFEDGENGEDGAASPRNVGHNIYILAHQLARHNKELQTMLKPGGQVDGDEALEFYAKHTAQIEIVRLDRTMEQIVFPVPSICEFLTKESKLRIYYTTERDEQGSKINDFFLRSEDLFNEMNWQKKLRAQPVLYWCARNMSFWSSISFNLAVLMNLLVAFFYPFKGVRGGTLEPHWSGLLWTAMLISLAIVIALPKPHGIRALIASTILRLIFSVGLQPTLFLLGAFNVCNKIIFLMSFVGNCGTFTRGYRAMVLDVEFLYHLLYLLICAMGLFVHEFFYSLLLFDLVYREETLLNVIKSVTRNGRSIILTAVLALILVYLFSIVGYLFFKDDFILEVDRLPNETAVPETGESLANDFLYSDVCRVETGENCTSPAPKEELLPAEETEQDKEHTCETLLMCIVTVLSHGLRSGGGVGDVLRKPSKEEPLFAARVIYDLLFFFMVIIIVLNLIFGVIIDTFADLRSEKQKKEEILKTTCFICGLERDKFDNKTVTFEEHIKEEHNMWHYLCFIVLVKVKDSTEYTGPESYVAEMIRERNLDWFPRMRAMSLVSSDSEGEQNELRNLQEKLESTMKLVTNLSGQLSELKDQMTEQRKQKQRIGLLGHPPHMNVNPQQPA

Purkinje cells = conditions: intact Purkinje cells; read-out: EC50 of IP3 for IP3-induced Ca2+ release; cited from earlier work
[3] = reported; cited from earlier work
[4] = biological target: T2, GST-EL (amino acids 1-2217 of mIP3R1) (Mus musculus, UniProt P11881); experiment: Pull-down assay with GST-EL (soluble IP3R1), immunoblot with anti-CARP antibody; assay type: binding; conditions: mouse cerebellar cytosolic fraction; GST as control
T2 construct: (amino acids 1-2217 of mIP3R1) and has GST in its N terminus; made in house; host or cells: Sf9 cells (recombinant baculovirus)
T2 sequence (P11881 1-2217, one chain of several): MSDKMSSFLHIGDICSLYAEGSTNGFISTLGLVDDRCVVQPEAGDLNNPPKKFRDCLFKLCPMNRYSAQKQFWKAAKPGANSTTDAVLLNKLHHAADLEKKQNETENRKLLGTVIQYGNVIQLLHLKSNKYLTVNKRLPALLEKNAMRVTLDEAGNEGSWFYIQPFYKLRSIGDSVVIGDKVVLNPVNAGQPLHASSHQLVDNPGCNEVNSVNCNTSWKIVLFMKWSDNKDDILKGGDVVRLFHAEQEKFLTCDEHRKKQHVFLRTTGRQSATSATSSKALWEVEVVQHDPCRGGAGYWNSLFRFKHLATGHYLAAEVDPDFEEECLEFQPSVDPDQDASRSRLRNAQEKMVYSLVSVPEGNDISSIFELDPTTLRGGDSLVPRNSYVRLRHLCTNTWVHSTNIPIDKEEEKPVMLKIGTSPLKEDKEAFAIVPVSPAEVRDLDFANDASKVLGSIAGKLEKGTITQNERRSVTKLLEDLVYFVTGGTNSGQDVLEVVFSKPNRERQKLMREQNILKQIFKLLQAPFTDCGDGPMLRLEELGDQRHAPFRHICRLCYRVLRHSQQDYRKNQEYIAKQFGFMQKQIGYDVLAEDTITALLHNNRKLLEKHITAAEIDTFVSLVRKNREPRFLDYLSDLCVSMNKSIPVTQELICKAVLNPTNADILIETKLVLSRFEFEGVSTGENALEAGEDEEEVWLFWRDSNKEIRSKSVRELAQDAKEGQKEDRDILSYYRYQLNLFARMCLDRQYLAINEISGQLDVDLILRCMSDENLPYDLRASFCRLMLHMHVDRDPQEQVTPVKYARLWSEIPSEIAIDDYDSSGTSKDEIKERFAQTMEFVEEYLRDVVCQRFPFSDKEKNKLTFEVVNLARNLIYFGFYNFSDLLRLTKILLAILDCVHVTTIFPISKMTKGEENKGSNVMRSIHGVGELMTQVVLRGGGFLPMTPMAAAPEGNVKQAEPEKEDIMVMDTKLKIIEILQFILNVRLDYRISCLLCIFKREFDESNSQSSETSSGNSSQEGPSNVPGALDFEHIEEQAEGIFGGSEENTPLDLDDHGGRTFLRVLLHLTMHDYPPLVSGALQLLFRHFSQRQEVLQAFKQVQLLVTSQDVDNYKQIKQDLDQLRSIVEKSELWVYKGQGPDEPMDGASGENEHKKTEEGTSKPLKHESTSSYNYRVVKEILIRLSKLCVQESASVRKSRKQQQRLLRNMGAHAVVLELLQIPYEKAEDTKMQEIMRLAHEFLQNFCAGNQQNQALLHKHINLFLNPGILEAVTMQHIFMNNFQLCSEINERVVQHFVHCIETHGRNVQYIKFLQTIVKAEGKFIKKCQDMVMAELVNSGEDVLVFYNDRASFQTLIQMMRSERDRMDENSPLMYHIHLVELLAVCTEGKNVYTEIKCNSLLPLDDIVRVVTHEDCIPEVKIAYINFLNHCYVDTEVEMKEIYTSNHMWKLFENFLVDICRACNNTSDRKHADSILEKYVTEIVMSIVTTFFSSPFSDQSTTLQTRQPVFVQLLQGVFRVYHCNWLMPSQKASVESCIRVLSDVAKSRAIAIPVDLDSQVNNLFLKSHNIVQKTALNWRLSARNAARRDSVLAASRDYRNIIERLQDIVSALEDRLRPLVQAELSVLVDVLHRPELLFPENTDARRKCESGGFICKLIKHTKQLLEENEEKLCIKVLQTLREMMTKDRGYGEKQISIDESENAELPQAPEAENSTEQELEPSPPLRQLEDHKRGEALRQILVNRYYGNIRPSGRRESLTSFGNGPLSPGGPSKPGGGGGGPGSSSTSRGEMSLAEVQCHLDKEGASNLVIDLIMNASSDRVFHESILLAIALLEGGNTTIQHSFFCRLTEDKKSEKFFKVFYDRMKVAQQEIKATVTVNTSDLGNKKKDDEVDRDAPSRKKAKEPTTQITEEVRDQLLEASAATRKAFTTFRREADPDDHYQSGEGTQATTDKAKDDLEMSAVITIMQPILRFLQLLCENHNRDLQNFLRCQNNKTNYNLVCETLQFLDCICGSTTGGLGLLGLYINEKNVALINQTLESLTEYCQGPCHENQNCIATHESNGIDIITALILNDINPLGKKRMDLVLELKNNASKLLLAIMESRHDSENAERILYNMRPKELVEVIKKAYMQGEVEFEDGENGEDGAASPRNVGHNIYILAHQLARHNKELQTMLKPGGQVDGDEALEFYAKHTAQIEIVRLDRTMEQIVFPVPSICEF
Text: (§1) Next, the inventors of the present application examined the interaction between CARP and IP3R1 by means of a pull-down method in order to obtain further evidence for the interaction by biochemical methods. The inventors first developed expression system in Sf9 cells, and made IP3R1 soluble by removing the channel domain. The soluble IP3R1, designated GST-EL, covers both the ligand binding domain and modulatory domain (amino acids 1-2217 of mIP3R1) and has GST in its N terminus. Mouse cerebellar cytosolic fraction was incubated with GST-EL or GST, and binding of CARP to the recombinant proteins was analyzed by immunoblotting with anti-CARP antibody. The results are shown in photographs of FIG. 4 which are substituted for drawings.
Adult mouse cerebella were homogenized in 10 mM HEPES (pH 7.4), 320 mM Sucrose, 2 mM EDTA, 1 mM 2-mercaptoethanol, and protease inhibitors and the homogenate was centrifuged at 1,000×g for 10 min. The supernatant was centrifuged at 100,000×g for 60 min to obtain the cytosolic fraction (the supernatant) and the crude microsome (the pellet). The cytosolic fraction was added with 100 mM NaCl, and incubated with 20 μg of GST-EL or GST for 2 hours at 4° C. […] The eluted proteins were analyzed by Western blotting with anti-CARP antibody. […]

IP3R1 [5] = biological target: T1, IP3R1; experiment: Pull-down assay with GST-CARP on detergent extract of mouse cerebellar microsome, immunoblot with anti-IP3R1 antibody; assay type: binding; design: The crude microsome was solubilized with 1% Triton X-100; from tissue; host or cells: adult mouse cerebellum, crude microsome solubilized with Triton X-100 (GST-CARP made in Escherichia coli); conditions: GST as control
Text: as §1
The crude microsome was solubilized with 1% Triton X-100, and dissolved in 50 mM HEPES (pH7.4), 2 mM EDTA, 1 mM 2-mercaptoethanol, and protease inhibitors for 30 min at 4° C., and centrifuged at 20,000×g for 30 min. The supernatants were processed for pull-down assay with 10 μg of GST-CARP or GST as described above, and bound proteins were subjected to immunoblot analysis with anti-IP3R1 antibody KM1112.

For O=P(O)(O)OC1C(O)C(O)C(OP(=O)(O)O)C(OP(=O)(O)O)C1O (stereo not shown) [IP3, inositol-1,4,5-triphosphate], the EC50 (IP3R1 [1]) is given as 100 to 1000 nM, the “Bmax value of IP3 binding to IP3R1” value (IP3R1 [2]; in the absence of CARP) is given as 1720 ± 234 pmol/mg and the Kd (IP3R1 [2]; in the absence of CARP) is given as 18.2 ± 4.58 nM. For the same molecule, the “Bmax value of IP3 binding to IP3R1” value (IP3R1 [2]; in the presence of CARP) was 1630 ± 108 pmol/mg, the Kd (IP3R1 [2]; in the presence of CARP) was 33.5 ± 2.07 nM and the EC50 (Purkinje cells) was ≥ 10000 nM.

B1: CARP: mouse carbonic anhydrase-related protein, 291 amino acids, SEQ ID NO:2 (protein, listed as Mus musculus)
chain: MADLSFIEDAVAFPEKEEDEEEEEEEGVEWGYEEGVEWGLVFPDANGEYQSPINLNSREARYDPSLLDVRLSPNYVVCRDCEVTNDGHTIQVILKSKSVLSGGPLPGGQEFELYEVRFHWGRENQRGSEHTVNFKAFPMELHLIHWNSTLFGSIDEAVGKPHGIAIIALFVQIGKEHVGLKAVTEILQDIQYKGKSKTIPCFNPNTLLPDPLLRDYWVYEGSLTIPPCSEGVTWILFRYPLTISQMQIEEFRRLRTHVKGVELVEGCDGILGDNFRPTQPLSDRVIRAAFQ
For B1, the carbonic anhydrase activity [3] is given as “no carbonic anhydrase activity”, the “binding of CARP to GST-EL in pull-down” value [4] is given as “specifically binds to GST-EL, but not to GST alone” and the “effect of CARP on binding of IP3 to IP3R1” value (IP3R1 [2]; 10 μg purified His-CARP, 0.5 μg purified IP3R1) is given as “inhibits binding of IP3 to IP3R1 not by antagonistic action but by reducing the affinity”.

B2: GST-CARP: GST-fusion recombinant full-length CARP expressed in Escherichia coli (protein)
chain: MADLSFIEDAVAFPEKEEDEEEEEEEGVEWGYEEGVEWGLVFPDANGEYQSPINLNSREARYDPSLLDVRLSPNYVVCRDCEVTNDGHTIQVILKSKSVLSGGPLPGGQEFELYEVRFHWGRENQRGSEHTVNFKAFPMELHLIHWNSTLFGSIDEAVGKPHGIAIIALFVQIGKEHVGLKAVTEILQDIQYKGKSKTIPCFNPNTLLPDPLLRDYWVYEGSLTIPPCSEGVTWILFRYPLTISQMQIEEFRRLRTHVKGVELVEGCDGILGDNFRPTQPLSDRVIRAAFQ
modifications: left off: a dimerising Fc or GST
notes: GST-fusion recombinant full-length CARP expressed in Escherichia coli
With B2 the “binding of IP3R1 to GST-CARP in pull-down” value (IP3R1 [5]) was “IP3R1 interacted with GST-CARP but not with GST”.
